Results as given in patent US20230284621A1, “HERBICIDAL COMPOSITIONS” (PBI-Gordon Corporation, priority 2022, published 2023).

Columns and labels:
[1] = Chemical stability, ambient storage; assay type: physicochemical; conditions: for 17 Months (% Change from Initial): active ingredient in Professional Formulation 1, 17 Months (title: 14 Months); for 16 Months (% Change from Initial): active ingredient in Professional Formulation 2
Protocol: (§1) Formulations were prepared as described in Example I. Physically stable formulations (no settling or physical issues observed) were tested for chemical stability over various time spans and temperature conditions.

[2] = Chemical stability, accelerated 40° C. storage; assay type: physicochemical; conditions: for 30 Days @ 40° C. (% Change from Initial): 30 days at 40° C.; for 42 Days @ 40° C. (% Change from Initial): 42 days at 40° C.
Protocol: as §1
Formulations were prepared as described in Example III. Physically stable formulations (no settling or physical issues observed) were tested for chemical stability over various time spans and temperature conditions.

[3] = active ingredient in Consumer Formulation 3
[4] = active ingredient in Professional Formulation 1
[5] = active ingredient in Professional Formulation 2
[6] = active ingredient in Ready to Use Formulation 3
[7] = active ingredient in Ready-to-Use Formulation 2

| SMILES | 17 Months (% Change from Initial) [1] | 16 Months (% Change from Initial) [1] | 30 Days @ 40° C. (% Change from Initial) [2, 3] [%] | 42 Days @ 40° C. (% Change from Initial) [2, 4] | 42 Days @ 40° C. (% Change from Initial) [2, 5] | 30 Days @ 40° C. (% Change from Initial) [2, 6] | 30 Days @ 40° C. (% Change from Initial) [2, 7] |
| --- | --- | --- | --- | --- | --- | --- | --- |
| O=C(O)COc1ccc(Cl)cc1Cl [2,4-D acid] | +2.71% | −2.02% | −0.21 | +0.66% | +1.38% | −.21% | +0.83% |
| Cc1c(C(=O)c2c[nH]n(C)c2=O)ccc(S(C)(=O)=O)c1C1=NOCC1 [Topramazone, 4-[3-(4,5-dihydro-1,2-oxazol-3-yl)-2-methyl-4-methylsulfonylbenzoyl]-2-methyl-1H-pyrazol-3-one] | −4.79% | −4.40% | −1.53 | −3.89% | +1.14% | −0.46% | 0.00% |
| Cc1nn(-c2cc(NS(C)(=O)=O)c(Cl)cc2Cl)c(=O)n1C(F)F [Sulfentrazone, N-[2,4-dichloro-5-[4-(difluoromethyl)-3-methyl-5-oxo-1,2,4-triazol-1-yl]phenyl]methanesulfonamide] | +3.60% | +5.71% | 0.00 | +1.30% | +0.29% | −0.33% | −0.67% |
| COc1c(Cl)ccc(Cl)c1C(=O)O [Dicamba acid, 3,6-dichloro-2-methoxybenzoic acid] | +2.04% | −0.80% | 0.00 | −4.11% | 0.00% | −1.79% | +1.10% |
